In article PMC5218480 (PLoS ONE, 2017):

Test system: MV-4-11 cells
Assay: Gene expression microarray analysis (Affymetrix PrimeView) and GSEA
Format: cell-based, human
Set-up: RFU PODN (11730768_x_at) / Fold change /veh PODN (11730768_x_at) / RFU LINC00158 (11744669_a_at) / Fold change /veh LINC00158 (11744669_a_at) / RFU DUSP10 (11751237_a_at) / Fold change /veh DUSP10 (11751237_a_at) / RFU ID3 (11757404_x_at) / Fold change /veh ID3 (11757404_x_at) / RFU PLEKHG5 (11737974_s_at) / Fold change /veh PLEKHG5 (11737974_s_at) / RFU LRRC4B (11730491_at) / Fold change /veh LRRC4B (11730491_at) / RFU GIMAP4 (11747438_a_at) / Fold change /veh GIMAP4 (11747438_a_at) / RFU KRT8 (11758183_x_at) / Fold change /veh KRT8 (11758183_x_at) / RFU CNN1 (11734310_a_at) / Fold change /veh CNN1 (11734310_a_at) / RFU VPS37D (11726825_at) / Fold change /veh VPS37D (11726825_at) / RFU C10orf10 (11716522_x_at) / Fold change /veh C10orf10 (11716522_x_at) / RFU KIR2DL2 /// KIR2DL4 /// KIR2DL5A /// KIR2DL5B /// KIR2DS1 /// KIR2DS2 /// KIR2DS3 /// KIR2DS4 /// KIR3DL3 /// KIR3DL3 /// KIR3DS1 (11738374_at) / Fold change /veh KIR2DL2 /// KIR2DL4 /// KIR2DL5A /// KIR2DL5B /// KIR2DS1 /// KIR2DS2 /// KIR2DS3 /// KIR2DS4 /// KIR3DL3 /// KIR3DL3 /// KIR3DS1 (11738374_at) / RFU C1QL1 (11718748_at) / Fold change /veh C1QL1 (11718748_at) / RFU TMPRSS4 (11747572_a_at) / Fold change /veh TMPRSS4 (11747572_a_at) / RFU HAMP (11756126_x_at) / Fold change /veh HAMP (11756126_x_at) / RFU RNFT2 (11725882_a_at) / Fold change /veh RNFT2 (11725882_a_at) / RFU NR4A2 (11747474_a_at) / Fold change /veh NR4A2 (11747474_a_at) / RFU ABCC12 (11746883_a_at) / Fold change /veh ABCC12 (11746883_a_at) / RFU TMEM136 (11760407_x_at) / Fold change /veh TMEM136 (11760407_x_at) / RFU CLDN22 /// WWC2 (11732394_at) / Fold change /veh CLDN22 /// WWC2 (11732394_at) / RFU HLA-DPB1 (11760878_x_at) / Fold change /veh HLA-DPB1 (11760878_x_at) / RFU SPINT1 (11716480_a_at) / Fold change /veh SPINT1 (11716480_a_at) / RFU GAP43 (11754022_s_at) / Fold change /veh GAP43 (11754022_s_at) / RFU A4GNT (11735810_at) / Fold change /veh A4GNT (11735810_at) / RFU PRB3 (11715151_x_at) / Fold change /veh PRB3 (11715151_x_at) / RFU TUBB4B (11761932_at) / Fold change /veh TUBB4B (11761932_at) / RFU CAPN14 (11732068_a_at) / Fold change /veh CAPN14 (11732068_a_at) / RFU TMCC2 (11721928_a_at) / Fold change /veh TMCC2 (11721928_a_at) / RFU IRGQ (11745062_a_at) / Fold change /veh IRGQ (11745062_a_at) / RFU FAM174B (11720279_a_at) / Fold change /veh FAM174B (11720279_a_at) / RFU TMPRSS4 (11748680_a_at) / Fold change /veh TMPRSS4 (11748680_a_at) / RFU FAM212B (11763350_a_at) / Fold change /veh FAM212B (11763350_a_at) / RFU PLEKHG5 (11743358_a_at) / Fold change /veh PLEKHG5 (11743358_a_at) / RFU ZSCAN30 (11745921_a_at) / Fold change /veh ZSCAN30 (11745921_a_at) / RFU CMKLR1 (11741424_a_at) / Fold change /veh CMKLR1 (11741424_a_at) / RFU LOC101060620 /// MAPK8IP1 (11723275_at) / Fold change /veh LOC101060620 /// MAPK8IP1 (11723275_at) / RFU SPTSSB (11747773_x_at) / Fold change /veh SPTSSB (11747773_x_at) / RFU PRSS12 (11739890_at) / Fold change /veh PRSS12 (11739890_at) / RFU BIN1 (11741810_x_at) / Fold change /veh BIN1 (11741810_x_at) / RFU WNT11 (11732464_a_at) / Fold change /veh WNT11 (11732464_a_at) / RFU C10orf10 (11716521_a_at) / Fold change /veh C10orf10 (11716521_a_at) / RFU C5orf56 (11738089_at) / Fold change /veh C5orf56 (11738089_at) / RFU CYB561 (11721691_x_at) / Fold change /veh CYB561 (11721691_x_at) / RFU ANKRD19P (11752326_a_at) / Fold change /veh ANKRD19P (11752326_a_at) / RFU OR2T12 /// OR2T33 /// OR2T8 (11738714_s_at) / Fold change /veh OR2T12 /// OR2T33 /// OR2T8 (11738714_s_at) / RFU VCAN (11748164_a_at) / Fold change /veh VCAN (11748164_a_at) / RFU JSRP1 (11732532_at) / Fold change /veh JSRP1 (11732532_at) / RFU KRTAP10-11 (11738290_x_at) / Fold change /veh KRTAP10-11 (11738290_x_at) / RFU MYO3A (11730013_a_at) / Fold change /veh MYO3A (11730013_a_at) / RFU EBF3 (11725865_a_at) / Fold change /veh EBF3 (11725865_a_at) / RFU CAMK2N1 (11719241_x_at) / Fold change /veh CAMK2N1 (11719241_x_at) / RFU C5orf56 (11738088_a_at) / Fold change /veh C5orf56 (11738088_a_at) / RFU OLFML3 (11715873_a_at) / Fold change /veh OLFML3 (11715873_a_at) / RFU LOC100653217 /// NTM (11731650_a_at) / Fold change /veh LOC100653217 /// NTM (11731650_a_at) / RFU MAPK11 (11762145_a_at) / Fold change /veh MAPK11 (11762145_a_at) / RFU FIZ1 (11724087_x_at) / Fold change /veh FIZ1 (11724087_x_at) / RFU OASL (11726364_x_at) / Fold change /veh OASL (11726364_x_at) / RFU SOX15 (11748057_x_at) / Fold change /veh SOX15 (11748057_x_at) / RFU CD79A (11719716_a_at) / Fold change /veh CD79A (11719716_a_at) / RFU HIST1H1D (11736915_at) / Fold change /veh HIST1H1D (11736915_at) / RFU CASKIN2 (11723855_a_at) / Fold change /veh CASKIN2 (11723855_a_at) / RFU LOC730098 (11760151_x_at) / Fold change /veh LOC730098 (11760151_x_at) / RFU OR4N2 (11742367_at) / Fold change /veh OR4N2 (11742367_at) / RFU PRRT2 (11749266_a_at) / Fold change /veh PRRT2 (11749266_a_at) / RFU SNX32 (11753110_a_at) / Fold change /veh SNX32 (11753110_a_at) / RFU CDHR5 (11726645_a_at) / Fold change /veh CDHR5 (11726645_a_at) / RFU RCAN1 (11760418_a_at) / Fold change /veh RCAN1 (11760418_a_at) / RFU FAM167A (11723789_a_at) / Fold change /veh FAM167A (11723789_a_at) / RFU FAM26E (11764081_at) / Fold change /veh FAM26E (11764081_at) / RFU ISYNA1 (11749810_s_at) / Fold change /veh ISYNA1 (11749810_s_at) / RFU ACY1 (11761880_at) / Fold change /veh ACY1 (11761880_at) / RFU 11764098_at / Fold change /veh 11764098_at / RFU SAMD14 (11745864_x_at) / Fold change /veh SAMD14 (11745864_x_at) / RFU NPB (11741838_a_at) / Fold change /veh NPB (11741838_a_at) / RFU TMPRSS6 (11731388_a_at) / Fold change /veh TMPRSS6 (11731388_a_at) / RFU KRTAP10-2 (11738614_at) / Fold change /veh KRTAP10-2 (11738614_at) / RFU ARHGAP8 /// PRR5-ARHGAP8 (11727945_x_at) / Fold change /veh ARHGAP8 /// PRR5-ARHGAP8 (11727945_x_at) / RFU KRTAP5-7 /// NADSYN1 (11734609_at) / Fold change /veh KRTAP5-7 /// NADSYN1 (11734609_at) / RFU RASL12 (11751679_a_at) / Fold change /veh RASL12 (11751679_a_at) / RFU CDKN2B (11736163_a_at) / Fold change /veh CDKN2B (11736163_a_at) / RFU PRF1 (11729649_at) / Fold change /veh PRF1 (11729649_at) / RFU, ZNF638 /// ZNF638-IT1 / Fold change vs veh, ZNF638 /// ZNF638-IT1 / RFU, PANK3 / Fold change vs veh, PANK3 / RFU, SH3YL1 / Fold change vs veh, SH3YL1 / RFU, ZEB2 / Fold change vs veh, ZEB2 / RFU, NRIP1 / Fold change vs veh, NRIP1 / RFU, PTTG1IP / Fold change vs veh, PTTG1IP / RFU, CAPN2 / Fold change vs veh, CAPN2 / RFU, MED14 / Fold change vs veh, MED14 / RFU, SNORA58 / Fold change vs veh, SNORA58 / RFU, C1orf63 / Fold change vs veh, C1orf63 / RFU, LRRFIP1 / Fold change vs veh, LRRFIP1 / RFU, NDUFAF7 / Fold change vs veh, NDUFAF7 / RFU, SLC12A2 / Fold change vs veh, SLC12A2 / RFU, IBTK / Fold change vs veh, IBTK / RFU, ESF1 / Fold change vs veh, ESF1 / Fold change vs veh, TMEM50B / RFU, TAOK1 / Fold change vs veh, TAOK1 / RFU, ACBD3 / Fold change vs veh, ACBD3 / RFU, TMA16 / Fold change vs veh, TMA16 / RFU, RWDD3 / Fold change vs veh, RWDD3 / RFU, BCAT1 / Fold change vs veh, BCAT1 / RFU, EDEM3 / Fold change vs veh, EDEM3 / RFU, TMEM33 / Fold change vs veh, TMEM33 / RFU, WDR75 / Fold change vs veh, WDR75 / RFU, AHCTF1 / Fold change vs veh, AHCTF1 / RFU, TFRC / Fold change vs veh, TFRC / RFU, ZDHHC17 / Fold change vs veh, ZDHHC17 / RFU, NOM1 / Fold change vs veh, NOM1 / RFU, ARL8B / Fold change vs veh, ARL8B / RFU, ZBTB11 / Fold change vs veh, ZBTB11 / RFU, TAMM41 / Fold change vs veh, TAMM41 / RFU, KIAA1704 /// LOC100996395 / Fold change vs veh, KIAA1704 /// LOC100996395 / RFU, ING1 / Fold change vs veh, ING1 / RFU, TRMT61B / Fold change vs veh, TRMT61B / RFU, FUBP3 / Fold change vs veh, FUBP3 / RFU, TP53 / Fold change vs veh, TP53 / RFU, TNKS2 / Fold change vs veh, TNKS2 / RFU, ZFP14 / Fold change vs veh, ZFP14 / RFU, ACTR2 / Fold change vs veh, ACTR2 / RFU, PPP3R1 / Fold change vs veh, PPP3R1 / RFU, PIK3R1 / Fold change vs veh, PIK3R1 / RFU, HNRNPA1 / Fold change vs veh, HNRNPA1 / RFU, RNF170 / Fold change vs veh, RNF170 / RFU, ZNF28 / Fold change vs veh, ZNF28 / RFU, RNGTT / Fold change vs veh, RNGTT / RFU, OGT / Fold change vs veh, OGT / RFU, BRD1 / Fold change vs veh, BRD1 / RFU, MARS / Fold change vs veh, MARS / RFU, ZNF655 / Fold change vs veh, ZNF655 / RFU, FAHD1 / Fold change vs veh, FAHD1 / RFU, BDP1 / Fold change vs veh, BDP1 / RFU, LRRCC1 / Fold change vs veh, LRRCC1 / RFU, ARID1A / Fold change vs veh, ARID1A / RFU, ZNF146 / Fold change vs veh, ZNF146 / RFU, ZNF330 / Fold change vs veh, ZNF330 / RFU, GPN3 / Fold change vs veh, GPN3 / RFU, C9orf123 / Fold change vs veh, C9orf123 / RFU, N4BP2L2 / Fold change vs veh, N4BP2L2 / RFU, ARFIP1 / Fold change vs veh, ARFIP1 / RFU, FAM179B / Fold change vs veh, FAM179B / RFU, BCL10 / Fold change vs veh, BCL10 / RFU, UHRF1BP1L / Fold change vs veh, UHRF1BP1L / RFU, BET1 / Fold change vs veh, BET1 / RFU, CNOT2 / Fold change vs veh, CNOT2 / RFU, ZNF268 / Fold change vs veh, ZNF268 / Fold change vs veh, ZNF507 / RFU, DGCR2 / Fold change vs veh, DGCR2 / RFU, WDSUB1 / Fold change vs veh, WDSUB1 / Fold change vs veh, HSP90B1 /// MIR3652 / RFU, ADSS / Fold change vs veh, ADSS / RFU, GK / Fold change vs veh, GK / RFU, ZNF148 / Fold change vs veh, ZNF148 / RFU, TAF9 / Fold change vs veh, TAF9 / RFU, SLC1A5 / Fold change vs veh, SLC1A5 / RFU, SLMO2 / Fold change vs veh, SLMO2 / RFU, ABCC4 / Fold change vs veh, ABCC4 / RFU, LOC101060439 /// RAP1B / Fold change vs veh, LOC101060439 /// RAP1B / RFU, RFX7 / Fold change vs veh, RFX7 / RFU, GTPBP10 / Fold change vs veh, GTPBP10 / RFU, CNEP1R1 / Fold change vs veh, CNEP1R1 / RFU, BIVM-ERCC5 /// ERCC5 / Fold change vs veh, BIVM-ERCC5 /// ERCC5 / RFU, ILF3 / Fold change vs veh, ILF3 / RFU 11762660_at / Fold change /veh 11762660_at / RFU VCAN (11757783_s_at) / Fold change /veh VCAN (11757783_s_at) / RFU DDX43 (11728927_at) / Fold change /veh DDX43 (11728927_at) / RFU KRT8 (11758188_x_at) / Fold change /veh KRT8 (11758188_x_at) / RFU NKD1 (11759106_at) / Fold change /veh NKD1 (11759106_at) / RFU SRD5A1 (11742802_a_at) / Fold change /veh SRD5A1 (11742802_a_at) / RFU TPSAB1 /// TPSB2 (11721975_s_at) / Fold change /veh TPSAB1 /// TPSB2 (11721975_s_at) / RFU GSTM3 (11746129_a_at) / Fold change /veh GSTM3 (11746129_a_at) / RFU IL23R (11737362_x_at) / Fold change /veh IL23R (11737362_x_at) / RFU TMEM51 (11727254_a_at) / Fold change /veh TMEM51 (11727254_a_at) / RFU PIWIL2 (11732686_x_at) / Fold change /veh PIWIL2 (11732686_x_at) / RFU ORM1 (11744905_x_at) / Fold change /veh ORM1 (11744905_x_at) / RFU CCDC152 (11743942_at) / Fold change /veh CCDC152 (11743942_at) / RFU ECM1 (11717891_a_at) / Fold change /veh ECM1 (11717891_a_at) / RFU IL23R (11748794_a_at) / Fold change /veh IL23R (11748794_a_at) / RFU TNFAIP8L3 (11732012_x_at) / Fold change /veh TNFAIP8L3 (11732012_x_at) / RFU MBOAT4 (11741988_at) / Fold change /veh MBOAT4 (11741988_at) / RFU 11764193_at / Fold change /veh 11764193_at / RFU TMEM53 (11763286_at) / Fold change /veh TMEM53 (11763286_at) / RFU MAGEB2 (11727129_at) / Fold change /veh MAGEB2 (11727129_at) / RFU TMEM200A (11744735_a_at) / Fold change /veh TMEM200A (11744735_a_at) / RFU CCDC152 (11751479_a_at) / Fold change /veh CCDC152 (11751479_a_at) / RFU FAM211A (11726209_a_at) / Fold change /veh FAM211A (11726209_a_at) / RFU RGS16 (11746705_a_at) / Fold change /veh RGS16 (11746705_a_at) / RFU VCAN (11755009_s_at) / Fold change /veh VCAN (11755009_s_at) / RFU RHOB (11743442_s_at) / Fold change /veh RHOB (11743442_s_at) / RFU RGS16 (11720943_a_at) / Fold change /veh RGS16 (11720943_a_at) / RFU RGS16 (11720944_at) / Fold change /veh RGS16 (11720944_at) / RFU, VPS4B / Fold change vs veh, VPS4B / RFU, CREB1 / Fold change vs veh, CREB1 / RFU, DNAJC13 / Fold change vs veh, DNAJC13 / RFU, GNAQ / Fold change vs veh, GNAQ / RFU, CDK5R1 / Fold change vs veh, CDK5R1 / RFU, ZRANB3 / Fold change vs veh, ZRANB3 / RFU, CUL4A / Fold change vs veh, CUL4A / RFU, CCNY / Fold change vs veh, CCNY / RFU, UFL1 / Fold change vs veh, UFL1 / RFU, COG3 / Fold change vs veh, COG3 / RFU, DIAPH2 / Fold change vs veh, DIAPH2 / RFU, SKA2 / Fold change vs veh, SKA2 / RFU, AFF3 / Fold change vs veh, AFF3 / RFU, LMF1 / Fold change vs veh, LMF1 / RFU, IPO11 / Fold change vs veh, IPO11 / RFU, DFFB / Fold change vs veh, DFFB / RFU, FOXP1 / Fold change vs veh, FOXP1 / RFU, CARD8 / Fold change vs veh, CARD8 / RFU, STRN3 / Fold change vs veh, STRN3 / RFU, ADK / Fold change vs veh, ADK / RFU, RASSF2 / Fold change vs veh, RASSF2 / RFU, WIPF1 / Fold change vs veh, WIPF1 / RFU, LARP1B / Fold change vs veh, LARP1B / RFU, RASA1 / Fold change vs veh, RASA1 / RFU, RB1 / Fold change vs veh, RB1 / RFU, PPFIA1 / Fold change vs veh, PPFIA1 / RFU, MAT2A / Fold change vs veh, MAT2A / RFU, CCT5 / Fold change vs veh, CCT5 / RFU, WDR92 / Fold change vs veh, WDR92 / RFU, CUX1 / Fold change vs veh, CUX1 / RFU, TTC7A / Fold change vs veh, TTC7A / RFU, TMEM135 / Fold change vs veh, TMEM135 / RFU, DEPTOR / Fold change vs veh, DEPTOR / RFU, CPM / Fold change vs veh, CPM / RFU, DNAJB6 / Fold change vs veh, DNAJB6 / RFU, CACNA2D3 / Fold change vs veh, CACNA2D3 / RFU, DTX4 / Fold change vs veh, DTX4 / RFU, TFCP2 / Fold change vs veh, TFCP2 / RFU, GMCL1 /// GMCL1P1 / Fold change vs veh, GMCL1 /// GMCL1P1 / RFU, AEBP2 / Fold change vs veh, AEBP2 / RFU, SNHG1 /// SNORD22 /// SNORD25 /// SNORD26 /// SNORD27 /// SNORD28 /// SNORD29 /// SNORD31 / Fold change vs veh, SNHG1 /// SNORD22 /// SNORD25 /// SNORD26 /// SNORD27 /// SNORD28 /// SNORD29 /// SNORD31 / Fold change (Aza/veh), C12orf56 (ProbeSet 11735607_a_at) / Fold change (ACY-1035/veh), C12orf56 (ProbeSet 11735607_a_at) / Fold change (Aza/veh), FGFR1OP (ProbeSet 11751329_s_at) / Fold change (ACY-1035/veh), FGFR1OP (ProbeSet 11751329_s_at) / Fold change (Aza/veh), VPS36 (ProbeSet 11739960_a_at) / Fold change (ACY-1035/veh), VPS36 (ProbeSet 11739960_a_at) / RFU SYPL1 (11715823_x_at) / Fold change /veh SYPL1 (11715823_x_at) / RFU IGFBP7 (11715501_s_at) / Fold change /veh IGFBP7 (11715501_s_at) / RFU REEP3 (11722064_at) / Fold change /veh REEP3 (11722064_at) / RFU IGLL1 (11728026_x_at) / Fold change /veh IGLL1 (11728026_x_at): dose or concentration left out as unconfirmed
Conditions: MV-4-11 cells, 48 hours

`Nc1ccc(-c2cccs2)cc1NC(=O)c1ccc2c(c1)cc(C1CC1)n2CCN1CCOCC1` [ACY-1035] was tested, and the “RFU CDKN2B (11736163_a_at)” value was 9.39 RFU.
